The test concerns the target ROCK1;ROCK2 (human) (UniProt O75116). Kind of test: Inhibition of ROCK1/ROCK2 Kinase Activity.

pIC50: −log10 of the molar value. Bounds are passed on as bounds.

ROCK1;ROCK2 (human), sequence (O75116 whole entry, looked up): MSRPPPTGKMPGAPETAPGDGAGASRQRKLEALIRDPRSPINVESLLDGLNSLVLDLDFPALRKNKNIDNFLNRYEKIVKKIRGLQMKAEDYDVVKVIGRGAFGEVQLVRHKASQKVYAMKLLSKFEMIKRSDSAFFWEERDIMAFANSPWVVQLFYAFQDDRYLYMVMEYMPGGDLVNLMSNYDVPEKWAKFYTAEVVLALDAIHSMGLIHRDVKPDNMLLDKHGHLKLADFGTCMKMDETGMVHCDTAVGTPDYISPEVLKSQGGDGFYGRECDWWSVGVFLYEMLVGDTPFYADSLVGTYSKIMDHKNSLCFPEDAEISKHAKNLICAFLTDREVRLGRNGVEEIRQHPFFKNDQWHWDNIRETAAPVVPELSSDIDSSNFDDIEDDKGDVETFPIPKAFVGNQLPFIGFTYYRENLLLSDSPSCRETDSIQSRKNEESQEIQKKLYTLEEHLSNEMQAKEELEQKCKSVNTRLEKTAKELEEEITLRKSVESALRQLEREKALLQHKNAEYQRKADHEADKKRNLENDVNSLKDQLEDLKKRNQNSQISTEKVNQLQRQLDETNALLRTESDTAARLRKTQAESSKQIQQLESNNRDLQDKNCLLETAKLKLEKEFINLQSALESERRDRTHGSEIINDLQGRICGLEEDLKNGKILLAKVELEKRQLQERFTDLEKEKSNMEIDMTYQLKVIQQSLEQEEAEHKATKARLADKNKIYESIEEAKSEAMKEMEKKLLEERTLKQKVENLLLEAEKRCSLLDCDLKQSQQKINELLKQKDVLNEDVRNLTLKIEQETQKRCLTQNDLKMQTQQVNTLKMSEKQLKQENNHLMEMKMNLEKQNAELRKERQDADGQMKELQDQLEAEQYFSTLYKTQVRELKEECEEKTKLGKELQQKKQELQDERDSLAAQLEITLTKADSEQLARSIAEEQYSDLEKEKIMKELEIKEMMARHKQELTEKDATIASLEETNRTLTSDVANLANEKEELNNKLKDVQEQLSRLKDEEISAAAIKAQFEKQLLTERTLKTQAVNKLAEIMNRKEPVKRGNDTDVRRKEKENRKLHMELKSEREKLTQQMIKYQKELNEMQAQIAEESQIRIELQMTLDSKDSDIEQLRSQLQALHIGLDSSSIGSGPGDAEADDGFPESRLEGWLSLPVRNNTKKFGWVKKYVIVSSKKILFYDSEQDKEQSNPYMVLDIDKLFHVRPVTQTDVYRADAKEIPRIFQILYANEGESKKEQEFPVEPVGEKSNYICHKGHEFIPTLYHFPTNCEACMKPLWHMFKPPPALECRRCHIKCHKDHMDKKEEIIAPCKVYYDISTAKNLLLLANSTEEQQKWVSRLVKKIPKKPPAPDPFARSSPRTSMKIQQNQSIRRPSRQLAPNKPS

As to `CC(N)c1ccc(C(=O)Nc2ccncc2)cc1OCCCN` (stereo unspecified), the pIC50 was 5.30 to 6.30.

Compound `CC(N)c1ccc(C(=O)Nc2ccncc2)cc1NC(=O)c1ccccc1` (stereo unspecified) gave a negative-log IC50 (pIC50) of 6.30 to 7.30.

The compound `CC(N)c1ccc(C(=O)Nc2ccncc2)cc1-c1ccc2ccccc2c1` (stereo unspecified) had a pIC50 greater than 7.30.

For `CC(N)c1ccc(C(=O)Nc2ccncc2)cc1NC(=O)c1cccc(Cl)c1` (stereo unspecified), the pIC50 was 6.30 to 7.30.

`COc1ccc(-c2cc(C(=O)Nc3ccncc3)ccc2C(C)N)cc1` (stereo unspecified) gave a pIC50 of 6.30 to 7.30.

As to `COc1ccc(C(=O)Nc2cc(C(=O)Nc3ccncc3)ccc2C(C)N)cc1` (stereo unspecified), the pIC50 is greater than 7.30.

In the case of `CC(N)c1ccc(C(=O)Nc2ccncc2)cc1O` (stereo unspecified), the pIC50 was 5.30 to 6.30.

`CC(N)c1ccc(C(=O)Nc2ccncc2)cc1-c1ccc(Cl)cc1` (stereo unspecified) gave a pIC50 greater than 7.30.

Take `CC(N)c1ccc(C(=O)Nc2ccncc2)cc1NCc1ccco1` (stereo unspecified): the pIC50 was 6.30 to 7.30.

As for `COc1cccc(C(=O)Nc2cc(C(=O)Nc3ccncc3)ccc2C(C)N)c1` (stereo unspecified), the pIC50 is greater than 7.30.

Compound `CC(N)c1ccc(C(=O)Nc2ccncc2)cc1OCCO` (stereo unspecified) showed a pIC50 of 5.30 to 6.30.

With `CC(N)c1ccc(C(=O)Nc2ccncc2)cc1NC(=O)c1ccc(Cl)cc1` (stereo unspecified), the pIC50 was 6.30 to 7.30.

Compound `C[C@H](N)c1ccc(C(=O)Nc2ccncc2)cc1-c1cccs1` had a pIC50 of 6.30 to 7.30.

On to `CC(N)c1ccc(C(=O)Nc2ccncc2)cc1N` (stereo unspecified), for which the pIC50 was 5.30 to 6.30.

Compound `CC(N)c1ccc(C(=O)Nc2ccncc2)cc1-c1cccs1` (stereo unspecified) gave a pIC50 greater than 7.30.

`C[C@@H](N)c1ccc(C(=O)Nc2ccncc2)cc1-c1cccs1` showed a pIC50 greater than 7.30.

The compound `CC(N)c1ccc(C(=O)Nc2ccncc2)cc1OCCN` (stereo unspecified) gave a negative-log IC50 (pIC50) of 5.30 to 6.30.

The compound `CC(N)c1ccc(C(=O)Nc2ccncc2)cc1[N+](=O)[O-]` (stereo unspecified) had a pIC50 of 6.30 to 7.30.

Compound `CC(N)c1ccc(C(=O)Nc2ccncc2)cc1OCc1ccccc1` (stereo unspecified) showed a pIC50 of 6.30 to 7.30.

As for `CC(N)c1ccc(C(=O)Nc2ccncc2)cc1-c1cccc(Cl)c1` (stereo unspecified), the pIC50 is greater than 7.30.

Compound `CC(N)c1ccc(C(=O)Nc2ccncc2)cc1-c1ccoc1` (stereo unspecified) gave a pIC50 of 6.30 to 7.30.

Turning to `CC(N)c1ccc(C(=O)Nc2ccncc2)cc1OCCCO` (stereo unspecified), the pIC50 is 5.30 to 6.30.

As to `CC(N)c1ccc(C(=O)Nc2ccncc2)cc1NC(=O)c1ccco1` (stereo unspecified), the pIC50 is 6.30 to 7.30.

For the compound `CC(N)c1ccc(C(=O)Nc2ccncc2)cc1NC(=O)Nc1ccccc1` (stereo unspecified), the pIC50 is 6.30 to 7.30.

`CC(N)c1ccc(C(=O)Nc2ccncc2)cc1-c1ccc(F)cc1` (stereo unspecified) gave a pIC50 greater than 7.30.

`CC(N)c1ccc(C(=O)Nc2ccncc2)cc1NC(=S)Nc1ccccc1` (stereo unspecified) showed a pIC50 of 6.30 to 7.30.

The record behind these values is the Kinase Knowledgebase extract (Sharma et al. 2016).
